Reference: US11584714B2 (priority 2018, dated 2023)
Counter-ions that a name gives are not always drawn. Like-named read-outs stand apart in the source and are kept apart here.

How the values were obtained:
human α-thrombin = human α-thrombin (Homo sapiens (Human), UniProt P00734); test: Enzymatic assay for thrombin (Boc-VPR-AMC substrate); format: biochemical; conditions: read-out: Thrombin Ki
MASP-2 (CCP1-CCP2-SP) = MASP-2 (CCP1-CCP2-SP) (Homo sapiens (Human), UniProt O00187); test: biochemical; format: biochemical; conditions: for MASP-2 vs. thrombin selectivity: MASP-2 inhibition versus thrombin; for Ki: read-out: MASP-2 Ki
MASP-2 (CCP1-CCP2-SP), sequence (O00187 445-686): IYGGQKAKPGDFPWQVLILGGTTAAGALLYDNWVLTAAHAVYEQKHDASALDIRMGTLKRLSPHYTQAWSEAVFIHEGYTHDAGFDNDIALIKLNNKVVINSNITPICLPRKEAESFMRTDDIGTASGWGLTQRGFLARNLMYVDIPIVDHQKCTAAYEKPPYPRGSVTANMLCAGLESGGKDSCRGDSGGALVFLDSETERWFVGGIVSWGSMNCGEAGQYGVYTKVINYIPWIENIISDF

Row | SMILES | Ki (human α-thrombin; Zn/EDTA condition not given) | Ki (human α-thrombin) | MASP-2 vs. thrombin selectivity (MASP-2 (CCP1-CCP2-SP)) | Ki (MASP-2 (CCP1-CCP2-SP))
1 | N=C(N)NCCCNC(=O)[C@@H]1CCN1C(=O)[C@H](N)C1CCCCC1 [compound 1004, (S)-1-((R)-2-Amino-2-cyclohexylacetyl)-N-(3-guanidinopropyl)azetidine-2-carboxamide Hydrochloride] |  | < 500 nM |  | 
2 | CC(C)(C)[C@@H](N)C(=O)N1CC[C@H]1C(=O)NCc1ccc(C(=N)N)cc1 [compound 1005] |  | < 500 nM |  | 
3 | C[C@H](NC(=O)[C@H](N)CCc1ccccc1)C(=O)NCCCCNC(=N)N [compound 1010] |  | > 25000 nM |  | 
4 | C[C@H](NC(=O)[C@H]1C[C@H](c2ccccc2)CN1)C(=O)NCc1ccc(N)nc1 [compound 1012] |  | > 25000 nM |  | 
5 | C[C@H](NC(=O)[C@H](N)CCc1ccccc1)C(=O)NCc1ccc(CN)cc1 [compound 1014] |  | > 25000 nM |  | 
6 | N=C(N)c1ccc(CNC(=O)[C@@H]2CCN2C(=O)[C@H](O)C2CCCCC2)cc1 [compound 1020] |  | < 500 nM | −− (less than 1.0-fold) | < 500 nM
7 | N=C(N)c1ccc(CNC(=O)[C@@H]2CCN2C(=O)[C@H]2CC3CCCCC3N2)cc1 (some centres unmarked) [compound 1026] |  | < 500 nM |  | 
8 | N=C(N)c1ccc(CNC(=O)[C@@H]2CCCN2C(=O)[C@H](N)C2CCCCC2)cc1 [compound 1027] |  | < 500 nM | −− (less than 1.0-fold) | < 500 nM
9 | N=C(N)c1ccc(CNC(=O)[C@@H]2CCN2C(=O)[C@H](NCC(=O)O)C2CC2)cc1 [compound 1028, ((R)-2-((S)-2-((4-carbamimidoylbenzyl)carbamoyl)azetidin-1-yl)-1-cyclopropyl-2-oxoethyl)glycine] |  | < 500 nM |  | 
10 | N=C(N)c1ccc(CNC(=O)[C@@H]2CCN2C(=O)[C@H](N)CCc2ccccc2)cc1 [compound 1038] |  | < 500 nM | * (1.0 to 5.0-fold) | < 500 nM
11 | C[C@H](NC(=O)[C@H](N)CCc1ccc(F)cc1)C(=O)NCc1ccc(C(=N)N)cc1 [compound 1047] |  | < 500 nM |  | 
12 | C[C@H](NC(=O)[C@H](N)CCc1ccccc1F)C(=O)NCc1ccc(C(=N)N)cc1 [compound 1049] |  | < 500 nM | ** (5.0 to 25-fold) | < 500 nM
13 | N=C(N)c1ccc(CNC(=O)[C@@H]2CCN2C(=O)[C@H](N)C2Cc3ccccc3C2)cc1 [compound 1058, (S)-1-((R)-2-Amino-2-(2,3-dihydro-1H-inden-2-yl)acetyl)-N-(4-carbamimidoylbenzyl)azetidine-2-carboxamide] |  | < 500 nM | −− (less than 1.0-fold) | < 500 nM
14 | C[C@H](NC(=O)[C@H]1C[C@H](c2ccccc2)CN1)C(=O)NCc1ccc(C(=N)NO)cc1 [compound 1070] |  | > 25000 nM |  | 
15 | COc1ccc(CC[C@@H](N)C(=O)N[C@@H](C)C(=O)NCc2ccc(C(=N)N)cc2)cc1 [compound 1076] |  | < 500 nM | ** (5.0 to 25-fold) | < 500 nM
16 | CC(=O)N[C@@H](C(=O)N1CC[C@H]1C(=O)NCc1ccc(C(=N)N)cc1)C1CCCCC1 [compound 1077] |  | < 500 nM |  | 
17 | C[C@H](NC(=O)[C@H](N)CCc1ccccc1Cl)C(=O)NCc1ccc(C(=N)N)cc1 [compound 1082] |  | < 500 nM | * (1.0 to 5.0-fold) | < 500 nM
18 | C[C@H](NC(=O)[C@H](N)CCc1ccc(F)cc1F)C(=O)NCc1ccc(C(=N)N)cc1 [compound 1084] |  | < 500 nM | ** (5.0 to 25-fold) | < 500 nM
19 | C[C@H](NC(=O)[C@H](N)CCc1ccc(F)c(F)c1)C(=O)NCc1ccc(C(=N)N)cc1 [compound 1085] |  | < 500 nM | ** (5.0 to 25-fold) | < 500 nM
20 | C[C@H](NC(=O)[C@H](N)CCc1cc(F)ccc1F)C(=O)NCc1ccc(C(=N)N)cc1 [compound 1086] |  | < 500 nM | ** (5.0 to 25-fold) | < 500 nM
21 | C[C@H](NC(=O)[C@H](N)CCc1cc(F)cc(F)c1)C(=O)NCc1ccc(C(=N)N)cc1 [compound 1087] |  | < 500 nM | ** (5.0 to 25-fold) | < 500 nM
22 | C[C@H](NC(=O)[C@H](N)Cc1ccc2ccccc2c1)C(=O)NCc1ccc(C(=N)N)cc1 [compound 1093] |  | < 500 nM | −− (less than 1.0-fold) | < 500 nM

Row | SMILES | Ki (human α-thrombin; Zn/EDTA condition not given) | Ki (human α-thrombin) | MASP-2 vs. thrombin selectivity (MASP-2 (CCP1-CCP2-SP)) | Ki (MASP-2 (CCP1-CCP2-SP))
23 | CN(CC(=O)NCc1ccc(C(=N)N)cc1)C(=O)[C@H](NCC(=O)O)C1CCCCC1 [compound 1096] |  | < 500 nM |  | 
24 | N=C(N)c1ccc(CNC(=O)[C@@H]2CCN2C(=O)[C@H](NCC(=O)O)c2ccccc2)cc1 [compound 1100] |  | < 500 nM |  | 
25 | N=C(N)c1ccc(CNC(=O)[C@@H]2CCN2C(=O)[C@H](NCC(N)=O)C2CCCCC2)cc1 [compound 1102, (S)-1-((R)-2-((2-amino-2-oxoethyl)amino)-2-cyclohexylacetyl)-N-(4-carbamimidoylbenzyl)azetidine-2-carboxamide] |  | < 500 nM |  | 
26 | CC[C@H](NC(=O)[C@H](NCC(=O)O)C1CCCCC1)C(=O)NCc1ccc(C(=N)N)cc1 [compound 1106] |  | < 500 nM |  | 
27 | C[C@@H](C(=O)NCc1ccc(C(=N)N)cc1)N(C)C(=O)[C@H](NCC(=O)O)C1CCCCC1 [compound 1107] |  | < 500 nM | −− (less than 1.0-fold) | < 500 nM
28 | C[C@H](NC(=O)[C@@H](CCc1ccccc1)NCC(=O)O)C(=O)NCc1ccc(C(=N)N)cc1 [compound 1110] |  | < 500 nM | * (1.0 to 5.0-fold) | < 500 nM
29 | COc1ccc(CC[C@@H](N)C(=O)N[C@@H](C)C(=O)NCc2ccc(C(=N)N)cc2)c(OC)c1 [compound 1111] |  | < 500 nM | * (1.0 to 5.0-fold) | < 500 nM
30 | COc1cc(CC[C@@H](N)C(=O)N[C@@H](C)C(=O)NCc2ccc(C(=N)N)cc2)cc(OC)c1 [compound 1112] |  | < 500 nM | ** (5.0 to 25-fold) | < 500 nM
31 | CC(C)N(CC(=O)NCc1ccc(C(=N)N)cc1)C(=O)[C@H](NCC(=O)O)C1CCCCC1 [compound 1117] |  | < 500 nM |  | 
32 | C[C@H](NC(=O)[C@H](N)CCc1cccc(C(F)(F)F)c1)C(=O)NCc1ccc(C(=N)N)cc1 [compound 1120] |  | < 500 nM | ** (5.0 to 25-fold) | < 500 nM
33 | C[C@H](NC(=O)[C@@H](CCc1ccccc1)NC1CCCC1)C(=O)NCc1ccc(C(=N)N)cc1 [compound 1122] |  | < 500 nM | −− (less than 1.0-fold) | < 500 nM
34 | N=C(N)c1ccc(CNC(=O)[C@@H]2CCN2C(=O)[C@@H](CCc2ccccc2)NCC(=O)O)cc1 [compound 1124] |  | < 500 nM | −− (less than 1.0-fold) | < 500 nM
35 | CC(C)(C)OC(=O)N[C@@H](C(=O)N1CCC[C@H]1C(=O)NCc1ccc(C(=N)N)cc1)C1CCCCC1 [compound 1138] |  | < 500 nM |  | 
36 | N=C(N)c1ccc(CNC(=O)[C@H]2CCCCN2C(=O)[C@H](NCC(=O)O)C2CCCCC2)cc1 [compound 1154] |  | < 500 nM |  | 
37 | C[C@H](NC(=O)[C@H](N)CCc1ccccc1)C(=O)NCc1ccc(C(=N)NO)cc1 [compound 1157, (R)-2-Amino-N—((S)-1-((4-(N-hydroxycarbamimidoyl)benzyl)amino)-1-oxopropan-2-yl)-4-phenylbutanamide Dihydrochloride] |  | > 25000 nM |  | 
38 | N=C(N)c1ccc(CNC(=O)[C@@H]2CCN2C(=O)[C@H](N)CC2CCCCC2)cc1 [compound 1158] |  | < 500 nM |  | 
39 | C[C@H](NC(=O)[C@H](N)CCc1ccccc1)C(=O)NCc1cc(Cl)ccc1Cl [compound 1192] |  | > 25000 nM |  | 
40 | Cc1cc(N)nc(C)c1CNC(=O)[C@H](C)NC(=O)[C@H](N)CCc1ccccc1 [compound 1213] |  | > 25000 nM |  | 
41 | C[C@H](NC(=O)[C@H]1C[C@@H](c2ccccc2)CN1)C(=O)NCc1ccc(N)nc1 [compound 1255, (2R,4S)—N—((S)-1-(((6-Aminopyridin-3-yl)methyl)amino)-1-oxopropan-2-yl)-4-phenylpyrrolidine-2-carboxamide] |  | > 25000 nM |  | 
42 | Cc1nc(N)ccc1CNC(=O)[C@H](C)NC(=O)[C@H]1C[C@@H](c2cccc(CN)c2)CN1 [compound 1291, (2R,4S)—N—((S)-1-(((6-Amino-2-methylpyridin-3-yl)methyl)amino)-1-oxopropan-2-yl)-4-(3-(aminomethyl)phenyl)pyrrolidine-2-carboxamide] |  | > 25000 nM |  | 
43 | CCOC(=O)NC(=N)c1ccc(CNC(=O)[C@H](C)NC(=O)[C@H]2C[C@H](c3ccccc3)CN2)cc1 [compound 1294, Ethyl (imino(4-(((S)-2-((2R,4R)-4-phenylpyrrolidine-2-carboxamido)propanamido)methyl)phenyl)methyl)carbamate] |  | > 25000 nM |  | 

Continued, in another order:

Row | Ki (human α-thrombin; Zn/EDTA condition not given) | SMILES | Ki (human α-thrombin) | MASP-2 vs. thrombin selectivity (MASP-2 (CCP1-CCP2-SP)) | Ki (MASP-2 (CCP1-CCP2-SP))
44 | > 25000 nM | N=C(N)c1ccc(CNC(=O)Cn2c(=O)n(Cc3ccccc3)c(=O)c3ccc(C(N)=O)cc32)cc1 [compound 2017, ((4-((2-(3-Benzyl-7-carbamoyl-2,4-dioxo-3,4-dihydroquinazolin-1(2H)-yl)acetamido)methyl)phenyl)(imino)methyl)-λ^5-azaneyl Acetate] |  |  | 
45 | > 25000 nM | CNC(=O)c1ccc2c(=O)n(Cc3ccccc3)c(=O)n(CC(=O)NCc3ccc(C(=N)N)cc3)c2c1 [compound 2018, 3-Benzyl-1-(2-((4-carbamimidoylbenzyl)amino)-2-oxoethyl)-N-methyl-2,4-dioxo-1,2,3,4-tetrahydroquinazoline-7-carboxamide] |  |  | 
46 | > 25000 nM | CCCCCn1c(=O)c2ccccc2n(CC(=O)Nc2ccc(NC(C)=O)cc2)c1=O [compound 2019] |  |  | 
47 | > 25000 nM | CCCCn1c(=O)c2ccccc2n(CC(=O)Nc2ccc(NC(C)=O)cc2)c1=O [compound 2020] |  |  | 
48 | > 25000 nM | N=C(N)c1ccc(CNC(=O)Cn2c(=O)n(Cc3ccccc3)c(=O)c3ccc(C(=O)NC4CCCCC4)cc32)cc1 [compound 2021, 3-Benzyl-1-(2-((4-carbamimidoylbenzyl)amino)-2-oxoethyl)-N-cyclohexyl-2,4-dioxo-1,2,3,4-tetrahydroquinazoline-7-carboxamide] |  |  | 
